This note sets out measurements from patent US8906888B2, “Low-calcemic 16,23-diene 25-oxime analogs of 1α,25-dihydroxy vitamin D3” (Cytochroma Inc., priority 2005, dated 2014).

In assay [1] the target is T1, VDR (Homo sapiens, UniProt P11473).
T1 construct: purchased Biomol
T1 sequence (P11473 1-427): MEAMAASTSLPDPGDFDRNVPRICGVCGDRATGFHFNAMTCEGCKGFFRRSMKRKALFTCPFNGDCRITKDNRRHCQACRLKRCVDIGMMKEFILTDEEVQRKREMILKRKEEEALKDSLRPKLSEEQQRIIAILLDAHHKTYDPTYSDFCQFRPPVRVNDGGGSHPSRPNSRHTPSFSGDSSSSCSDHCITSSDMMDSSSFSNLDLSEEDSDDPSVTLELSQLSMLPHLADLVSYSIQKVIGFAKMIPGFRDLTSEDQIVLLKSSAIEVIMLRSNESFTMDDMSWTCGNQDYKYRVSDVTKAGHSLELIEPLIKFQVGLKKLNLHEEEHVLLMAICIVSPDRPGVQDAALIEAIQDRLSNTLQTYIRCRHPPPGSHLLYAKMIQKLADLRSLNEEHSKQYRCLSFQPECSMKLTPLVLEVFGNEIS
Kind of assay: VDR binding assay ([3H]-1,25(OH)2D3 displacement). The following applies: human recombinant VDR; read-out: B50 (VDR binding, displacement of 50 percent [3H]-1,25(OH)2D3). Here is the method: • 1. VDR 9.4 μmol/μl (human, recombinant, Biomol). • 2. [^3H]-1,25(OH)2D3 in ethanol • 3. 1,25(OH)2D3 in ethanol • 4. TEK300 • Tris-HCl 50 mM • EDTA 1.5 mM • KCl 300 mM • Adjusted pH to 7.4 (25° C.) • 5. TEDK300 • TEK300 • DTT (dithiothreitol) 10 mM (MW 154.24) • 6. Tris buffer • 22.50 g Tris-HCI • 500 ml H2O • 13.25 g Tris-base • 500 ml H2O • Kept in 4° C. • 7. Dextran-T70 (Mol 70,000) Pharmacia • 8. Charcoal (carbon decolorizing neutral, norit) Fisher Scientific • 9. Gelatin (G-2625 Sigma) (ii) Reagent Preparation: 1. Charcoal Dextran Solution
(1) Tris Buffer • Mixed equal amount of Tris-HCl and Tris-base.
(2) Norit decolorizing neutral charcoal 2.0 g • Tris buffer 150 mL • Stirred
(3) Dextran T-70 0.2 g • Tris buffer 50 ml.
(4) Slowly dripped the suspended dextran into charcoal solution with stirring. • Kept in refrigerator overnight. • Thirty minutes before use, stored on ice with continuous mixing. 2. […]
• Pipetted 100 μL of the upper, aqueous phase to a 24 well scintillation counting plate and added 600 μL scintillation fluid per well, covered and mixed well. Counted the plate using a scintillation counter for 5 min/sample. (iv) Calculations: • The amount of 1,25(OH)2D3 to displace 50 percent [^3H]-1,25(OH)2D3 from VDR was calculated as B50 for 1,25(OH)2D3. The VDR binding of other compounds was calculated as B50 relative to a value of 1 for 1,25(OH)2D3. • Serial Dilution of 1,25(OH)D3

For assay [2], the system named is CYP24 mRNA. Kind of assay: CYP24 transcriptional activation assay in U-937 cells (real time PCR). The assay is classed as cell-based, human. As to conditions: six hours, normalized to GAPDH, 100 nM calcitriol set to 100%. Here is the method: 1α,25(OH)2D3 1 mM reconstituted in isopropanol
• Sodium pyruvate • Non-essential amino acids • HEPES • 10% fetal bovine serum Phorbol 12-myristate 13-acetate (PMA) 24-well plate Isopropanol TRIzol® reagent (Invitrogen) Chloroform Ethanol Diethylpyrocarbonate treated dH2O Thermoscript™ RT-PCR System kit (Invitrogen) Human CYP24 TaqMan® Probe (Applied Biosystems Inc) Human GAPDH TaqMan® Probe (Applied Biosystems Inc) TaqMan® Universal Master Mix Probe (Applied Biosystems Inc) (ii) Procedure:
1. Cell Culture, Stimulation and Plating • Cultured U-937 cells in 4+RPMI media to a level of ≈80% confluence. Pelleted cells by centrifugation and resuspended to a concentration of 5×10^5 cells per 1 ml media. Treated U-937 cells with a final concentration of PMA of 20 ng/ml. To each well, of a 24-well plate, added 1 ml of cell suspension and incubated overnight at 37° C., in a humidified atmosphere containing 5% CO2, for adherence of cells to the wells.
2. Cell Treatment and TRIzol® Addition • Changed the media with 1 ml of fresh 4+RPMI media. Added 1 μl of the working solutions of 1, 10, and 100 μM of the compound being tested, in triplicate. Added 1 μl of isopropanol as a control, in triplicate. Incubated the cells for six hours at 37° C., in a humidified atmosphere containing 5% CO2, aspirated off the media and then added 1 ml of TRIzol® reagent. Transferred TRIzol® with cell lysate to a 1.7 ml microcentrifuge tube and stored at −80° C.
3. […] Determined the concentration of RNA using a spectrophotometer to measure the optical density of each sample, at a wavelength of 260 nm. […]
4. CYP24/GAPDH Real Time PCR • Determined the amount of CYP24 and GAPDH mRNA present in each sample using commercial TaqMan® probes, from Applied Biosystems Inc. (Foster City, Calif.). Detected both genes in the same 20 μl reaction, using an ABI PRISM 96-well optical reaction plate and cycle 50 times using an ABI Prism 7000 Sequence Detection System® (ABI). […]

Regarding `C=C1/C(=C\C=C2/CCC[C@]3(C)C([C@H](C)C/C=C/C(=NOC)C(C)(C)C)=CC[C@@H]23)C[C@@H](O)C[C@@H]1O` [(20R)-I(e)], the IC50 in assay [1] was 60 nM. In assay [2], the “CYP24 mRNA induction, activity as % of that for calcitriol at 100 nM” value is reported as 65%.
